One series deals with HIV-1 protease (Human immunodeficiency virus type 1 group M subtype B, UniProt P04585). Nature of the series: Fluorogenic assay for screening inhibitors of HIV protease.
A short description of series [1]: Cytotoxicity in MT4 cells. Particulars: human, concentration at which 50% of the cells remain viable, read-out: LC50 (the source's name). The format is cell-based. The text has this:
(§1) The IC50 is the concentration of compound that gives 50% inhibition of the cytopathic effect of HIV. The LC50 is the concentration of compound at which 50% of the cells remain viable.

A further series has as its system HIV-13B in MT4 cells. In words: Anti-HIV activity (inhibition of cytopathic effect of HIV) in MT4 cells. Format: cell-based. Particulars: Human immunodeficiency virus 1, concentration giving 50% inhibition of cytopathic effect of HIV.
Source text: as §1
Background: Cytopathic effects are the visible damage that an infection or toxin causes in cultured cells.

Where [2] appears, read: pH 4.5, read-out: Percent Inhibition.

pIC50: −log10 of the molar value. Where two headings read alike, the source gives them in different places.

This note sets out measurements from patent US5461067A, “Retroviral protease inhibiting compounds” (priority 1994, dated 1995).

The term inhibition denotes the relative decrease from the control value, in per cent.

Experimental for HIV-1 protease: The inhibitory potency of the compounds of the invention can be determined by the following method.
A compound of the invention is dissolved in DMSO and a small aliquot further diluted with DMSO to 100 times the final concentration desired for testing. The reaction is carried out in a 6×50 mm tube in a total volume of 300 microliters. The final concentrations of the components in the reaction buffer are: 125 mM sodium acetate, 1M sodium chloride, 5 mM dithiothreitol, 0.5 mg/ml bovine serum albumin, 1.3 μM fluorogenic substrate, 2% (v/v) dimethylsulfoxide, pH 4.5. After addition of inhibitor, the reaction mixture is placed in the fluorometer cell holder and incubated at 30° C. for several minutes. The reaction is initiated by the addition of a small aliquot of cold HIV protease. The fluorescence intensity (excitation 340 nm, emmision 490 nM) is recorded as a function of time. The reaction rate is determined for the first six to eight minutes. The observed rate is directly proportional to the moles of substrate cleaved per unit time. The percent inhibition is 100×(1-(rate in presence of inhibitor)/(rate in absence of inhibitor)).

Turning to `CC(C)(C)OC(=O)NN(Cc1ccc(OCCN2CCOCC2)cc1)C[C@H](O)[C@H](Cc1ccccc1)NC(=O)OCc1ccccc1` [Example 57C, 2-(t-Butyloxycarbonyl)amino-5S-(benzyloxycarbonyl)amino-4S-hydroxy-1-(4-((2-morpholinyl)ethoxy)phenyl)-6-phenyl-2-azahexane], the pIC50 at HIV-1 protease is 8.00. For the same molecule, at HIV-1 protease (setting [2]), the inhibition at 0.0099 µM worked out at 50%.

On HIV-1 protease, `CC(C)(C)OC(=O)NN(Cc1cccc(O)c1)C[C@H](O)[C@H](Cc1ccccc1)NC(=O)OCc1ccccc1` [Example 55C, 5S-(Benzyloxycarbonyl)amino-2-(t-butyloxycarbonyl)amino-4S-hydroxy-1-(3-hydroxyphenyl)-6-phenyl-2-azahexane] had a pIC50 of 8.13. Also, on HIV-1 protease (setting [2]), the inhibition at 0.0074 µM stood at 50%.

For `CC(C)[C@H](NC(=O)OCc1ccccn1)C(=O)N[C@@H](Cc1ccccc1)[C@@H](O)CN(Cc1ccccc1)NC(=O)OC(C)(C)C` [Example 2E, 5S-N-((2-Pyridinyl)methoxycarbonyl)valinylamino-2-t-butyloxycarbonylamino-4S-hydroxy-1,6-diphenyl-2-azahexane], the CC50 in series [1] is 56 µM. The pIC50 was 5.91 to 6.11 in the series with HIV-13B in MT4 cells and 9.30 on HIV-1 protease. For the same molecule, the inhibition at 0.0005 µM on HIV-1 protease (setting [2]) is 50%.

Turning to `CC(C)c1nc(COC(=O)N[C@H](C(=O)N[C@@H](Cc2ccccc2)[C@@H](O)CN(Cc2ccc(F)cc2)NC(=O)OC(C)(C)C)C(C)C)co1` [Example 51D], the pIC50 is 6.56 to 6.68 with HIV-13B in MT4 cells and 9.30 against HIV-1 protease. Besides, the inhibition at 0.0005 µM on HIV-1 protease (setting [2]) came to 50%.

Take `CC(C)c1nc(CN(C)C(=O)N[C@H](C(=O)NN(Cc2ccccc2)C[C@H](O)[C@H](Cc2ccccc2)NC(=O)OCc2cncs2)C(C)C)co1` [Example 12, 5S-((5-Thiazolyl)methoxy)Carbonylamino-2-N-((N-methyl-N-((2-isopropyl-4-oxazolyl)methyl)amino)carbonyl)-L-valinylamino-4S-hydroxy-1,6-diphenyl-2-azahexane]: in series [1], the CC50 is 53 µM. The molecule also gave a pIC50 with HIV-13B in MT4 cells of 6.98 to 7.00. Further, the inhibition at 0.0005 µM at HIV-1 protease (setting [2]) worked out at 78%.

Molecule `CC(C)c1nc(COC(=O)N[C@H](C(=O)NN(Cc2ccccc2)C[C@H](O)[C@H](Cc2ccccc2)NC(=O)OCc2cncs2)C(C)C)co1` [Example 50, 5 S-(((5-Thiazolyl)methoxy)carbonyl)amino-2-((N-2-isopropyl-4-oxazolyl)methoxycarbonyl)amino-4S-hydroxy-1,6-diphenyl-2-azahexane] showed a pIC50 in the series with HIV-13B in MT4 cells of 7.51 to 7.80. At HIV-1 protease (setting [2]), the inhibition at 0.0005 µM came to 73%.

Take `CC(C)(C)OC(=O)NN(Cc1ccoc1)C[C@H](O)[C@H](Cc1ccccc1)NC(=O)OCc1cncs1` [Example 47]: the pIC50 at HIV-1 protease is 8.68. In addition, the inhibition at 0.0021 µM at HIV-1 protease (setting [2]) is 50%.

Turning to `CC(C)c1nc(CN(C)C(=O)N[C@H](C(=O)NN(Cc2ccccc2)C[C@H](O)[C@H](Cc2ccccc2)NC(=O)OCc2ccccc2)C(C)C)co1` [Example 11, 5S-(Benzyloxycarbonyl)amino-2-N-((N-methyl-N-((2-isopropyl-4-oxazolyl)methyl)amino)carbonyl)-L-valinylamino-4S-hydroxy-1,6-diphenyl-2-azahexane], the CC50 in series [1] is 18 µM. For the same molecule, the pIC50 in the series with HIV-13B in MT4 cells is 6.64. In addition, the inhibition at 0.0005 µM on HIV-1 protease (setting [2]) came to 69%.

With `COc1ccc(CN(C[C@H](O)[C@H](Cc2ccccc2)NC(=O)[C@@H](NC(=O)OCc2ccccn2)C(C)C)NC(=O)OCc2cccnc2)cc1` [Example 16, 5S-N-((2-Pyridinyl)methoxycarbonyl)-L-valinylamino-2-N-((3-pyridinyl)methoxycarbonyl)amino-4S-hydroxy-1-p-methoxyphenyl-6-phenyl-2-azahexane], the CC50 in series [1] was found to be 57 µM. For the same molecule, the pIC50 was 6.57 to 6.70 in the series with HIV-13B in MT4 cells and 9.30 against HIV-1 protease. Also, the inhibition at 0.0005 µM on HIV-1 protease (setting [2]) was found to be 50%.

As to `CC(C)(C)OC(=O)NN(Cc1ccccc1)C[C@H](O)[C@H](Cc1ccccc1)NC(=O)OCc1ccccc1` [Example 1F, 2-(t-Butyloxycarbonyl)amino-4S-hydroxy-5S-(benzyloxycarbonyl)amino-1,6-diphenyl-2-azahexane], the CC50 in series [1] was above 100 µM. Further, the pIC50 in the series on HIV-13B in MT4 cells was 4.44; against HIV-1 protease it was 8.29. In addition, on HIV-1 protease (setting [2]), the inhibition at 0.0051 µM was found to be 50%.

Turning to `CC(C)c1nc(CN(C)C(=O)N[C@H](C(=O)N[C@@H](Cc2ccccc2)[C@@H](O)CN(Cc2ccccc2)NC(=O)OC(C)(C)C)C(C)C)co1` [Example 9F, 5S-N-((N-Methyl-N-((2-isopropyl-4-oxazolyl)methyl)amino)carbonyl)-L-valinylamino-2-N-(t-butyloxycarbonyl)amino-4S-hydroxy-1,6-diphenyl-2-azahexane], the CC50 in series [1] came to 19 µM. In the series on HIV-13B in MT4 cells, this molecule had a pIC50 of 6.00 to 6.34. The inhibition at 0.0005 µM at HIV-1 protease (setting [2]) came out at 61%.

As for `CC(C)c1nc(CN(C)C(=O)N[C@H](C(=O)NN(Cc2cccc(O)c2)C[C@H](O)[C@H](Cc2ccccc2)NC(=O)OCc2cncs2)C(C)C)cs1` [Example 56B, 5S-(((5-Thiazolyl)methoxy)carbonyl)amino-2-N-((((N-methyl-N-2-isopropyl-4-thiazolyl)methyl)amino)carbonyl)-L-valinylamino-4S-hydroxy-1-(3-hydroxyphenyl)-6-phenyl-2-azahexane], the inhibition at 0.0005 µM on HIV-1 protease (setting [2]) was 49%.

On to `CC(C)c1nc(COC(=O)N[C@H](C(=O)NN(Cc2ccoc2)C[C@H](O)[C@H](Cc2ccccc2)NC(=O)OCc2cncs2)C(C)C)co1` [Example 49E, 5S-(((5-Thiazolyl)methoxy)carbonyl)amino-2-((N-2-isopropyl-4-oxazolyl)methoxycarbonyl)amino-4S-hydroxy-1-(3-furanyl)-6-phenyl-2-azahexane], for which the pIC50 in the series on HIV-13B in MT4 cells was 7.49 to 7.54. Moreover, the inhibition at 0.0005 µM on HIV-1 protease (setting [2]) stood at 75%.

On to `CC(C)c1nc(COC(=O)N[C@H](C(=O)N[C@@H](Cc2ccccc2)[C@@H](O)CN(Cc2ccc(O)cc2)NC(=O)OC(C)(C)C)C(C)C)co1` [Example 53, 5S-(((2-Isopropyl-4-oxazolyl)methoxycarbonyl)-valinyl)amino-2-(t-butyloxycarbonyl)amino-4S-hydroxy-1-(4-hydroxyphenyl)-6-phenyl-2-azahexane], for which, in the series with HIV-13B in MT4 cells, the pIC50 is 7.26. Further, the inhibition at 0.0005 µM at HIV-1 protease (setting [2]) amounted to 57%.

Consider `CC(C)(C)OC(=O)NN(Cc1ccc(O)cc1)C[C@H](O)[C@H](Cc1ccccc1)NC(=O)OCc1ccccc1` [Example 52, 5S-(Benzyloxycarbonyl)amino-2-(t-butyloxycarbonyl)amino-4S-hydroxy-1-(4-hydroxyphenyl)-6-phenyl-2-azahexane], for which the pIC50 at HIV-1 protease is 8.12. In addition, at HIV-1 protease (setting [2]), the inhibition at 0.0075 µM worked out at 50%.

`COc1ccc(CN(C[C@H](O)[C@H](Cc2ccccc2)NC(=O)[C@@H](NC(=O)OCc2ccccn2)C(C)C)NC(=O)OC(C)(C)C)cc1` [Example 15, 5S-N-((2-Pyridinyl)methoxycarbonyl)-L-valinylamino-2-N-(t-butyloxycarbonyl)amino-4S-hydroxy-1-p-methoxyphenyl-6-phenyl-2-azahexane]: the CC50 in series [1] is above 100 µM. In addition, the pIC50 in the series with HIV-13B in MT4 cells was 6.22 to 6.36. The inhibition at 0.0005 µM on HIV-1 protease (setting [2]) came out at 44%.

Consider `CC(C)c1nc(CN(C)C(=O)N[C@H](C(=O)NN(Cc2ccoc2)C[C@H](O)[C@H](Cc2ccccc2)NC(=O)OCc2cncs2)C(C)C)cs1` [Example 48, 5S-(((5-Thiazolyl)methoxy)carbonyl)amino-2-N-(((N-methyl-N-( (2-isopropyl-4-thiazolyl)methyl)amino)carbonyl)-L-valinyl)amino-4S-hydroxy-1-(3-furanyl)-6-phenyl-2-azahexane], for which the pIC50 in the series with HIV-13B in MT4 cells is 6.94 to 7.06. For the same molecule, the inhibition at 0.0005 µM at HIV-1 protease (setting [2]) is 66%.

As for `CC(C)c1nc(CN(C)C(=O)N[C@H](C(=O)NN(Cc2ccc(O)cc2)C[C@H](O)[C@H](Cc2ccccc2)NC(=O)OCc2cncs2)C(C)C)cs1` [Example 54B], in the series on HIV-13B in MT4 cells, the pIC50 was 7.17 to 7.43. In addition, the inhibition at 0.0005 µM on HIV-1 protease (setting [2]) is 56%.

For `COc1ccc(CN(C[C@H](O)[C@H](Cc2ccccc2)NC(=O)OCc2ccccc2)NC(=O)OC(C)(C)C)cc1` [Example 14B, 5S-N-(Benzyloxycarbonyl)amino-2-N-(t-butyloxycarbonyl)amino-4S-hydroxy-1-p-methoxyphenyl-6-phenyl-2-azahexane], the pIC50 on HIV-1 protease is 8.00. For the same molecule, the inhibition at 0.01 µM at HIV-1 protease (setting [2]) is 50%.

Turning to `COc1cccc(CN(C[C@H](O)[C@H](Cc2ccccc2)NC(=O)OCc2ccccc2)NC(=O)OC(C)(C)C)c1` [Example 17B], at HIV-1 protease (setting [2]), the inhibition at 0.012 µM was 50%. Also, on HIV-1 protease (read-out: Inhibitor Concentration (at 50 Percent Inhibition), concentration printed with 50 percent inhibition, pH 4.5, 30° C.), the pIC50 was 7.92.

For the molecule `CC(C)(C)OC(=O)NN(Cc1ccc(-c2ccccc2)cc1)C[C@H](O)[C@H](Cc1ccccc1)NC(=O)OCc1ccccc1` [Example 58, 2-(t-Butyloxycarbonyl)amino-5S-(benzyloxycarbonyl)amino-4S-hydroxy-1-(4-biphenyl)-6-phenyl-2-azahexane], the pIC50 against HIV-1 protease is 7.74. In addition, at HIV-1 protease (setting [2]), the inhibition at 0.018 µM is 50%.

On to `CC(C)c1nc(CN(C)C(=O)N[C@H](C(=O)NN(Cc2ccccc2)C[C@H](O)[C@H](Cc2ccccc2)NC(=O)OCc2ccccc2)C(C)C)cs1` [Example 6H, 5S-(Benzyloxycarbonyl)amino-2-N-(((N-methyl-N-((2-isopropyl-4-thiazolyl)methyl)amino)carbonyl)-L-valinyl)amino-4S-hydroxy-1,6-diphenyl-2-azahexane], for which the inhibition at 0.0005 µM on HIV-1 protease (setting [2]) is 73%.

`CC(C)(C)OC(=O)NN(Cc1ccccc1)C[C@H](O)[C@H](Cc1ccccc1)NC(=O)OCc1cccnc1` [Example 4B, 5S-((3-Pyridinyl)methoxycarbonyl)amino-2-t-butyloxycarbonylamino-4S-hydroxy-1,6-diphenyl-2-azahexane]: the pIC50 against HIV-1 protease is 8.41. Besides, the inhibition at 0.0039 µM at HIV-1 protease (setting [2]) came out at 50%.
